This assay deals with primary cerebellum granule cells of rats. The assay is described as follows: Protective effects of compounds on primary cerebellum granule cells of rats (glutamate-induced excitotoxic injury, MTT). The format is cell-based. Conditions: pre-protection 2 h, 200 iM glutamate 24 h, MTT cell viability; read-out: EC50, protective effects of the compounds on rat's nerve cells. Here is the method:
Isolated primary cerebellum granule cells of infant rats were inoculated in 96-well plates with 1.2×10^5/well by using 10% FBS+25 mM KCl+2 mM Glutamine+1% of double-antibody BME medium. After 24 hours, cytarabine with a final concentration of 10 iM was added to inhibit the proliferation of neurogliocyte cells. After the day 4, glucose with the final concentration of 5 mM was added every four days to complement energy metabolism and water evaporation of cells. The materials were placed in a cell incubator (37° C., 5% CO2) to be cultured for 10 days. […] After pre-protection for 2 h, 200 iM of glutamate was added to induce cell damage for 24 h, and then MTT was added to culture for 4 h. The supernatant fraction was sucked, and 150 iL of DMSO was added to each well for dissolving. After blending with shaking, the light absorption values under 570 nm wavelength was measured with a microplate reader, and the viability of cells was calculated. Cell viability (%)=absorbance of different groups/absorbance of the normal control group×100%.
Usually EC50 stands for the concentration that produces a half-maximal response. Turning to `CC(CO[N+](=O)[O-])CC12CC3CC(N)(C1)CC(CC(C)CO[N+](=O)[O-])(C3)C2` (stereo not shown) [NM-012], the EC50 worked out at 9.3 µM. The same measure for `CCC12CC3(N)CC(CC)(C1)CC(O[N+](=O)[O-])(C3)C2` [YQW-036, reference compound]: 31.4 µM. With `CCC12CC3CC(N)(C1)CC(O[N+](=O)[O-])(C3)C2` (stereo not shown) [NM-003], the EC50 came out at 15.4 µM. Consider `CCC12CC3CC(N)(C1)CC(CCCO[N+](=O)[O-])(C3)C2` (stereo not shown) [NM-005], for which the EC50 worked out at 6.06 µM. With `CC12CC3CC(N)(C1)CC(O[N+](=O)[O-])(C3)C2` (stereo not shown) [NM-001] the figure was 24.6 µM; with `NC12CC3CC(CCO[N+](=O)[O-])(C1)CC(CCO[N+](=O)[O-])(C3)C2` [NM-009], 5.2 µM. In the case of `CCC12CC3CC(N)(C1)CC(CO[N+](=O)[O-])(C3)C2` (stereo not shown) [NM-004], the EC50 worked out at 8.12 µM.

(Values after patent US10214478B2, “Amantadine nitrate compounds with neural protective effect, and preparation and medical use thereof” (GUANGZHOU MAGPIE PHARMACEUTICALS CO., LTD., priority 2016, dated 2019).)
